Assay results from ChEMBL document CHEMBL5727003, “Therapeutic inhibitory compounds” (2019).

The compounds below were run against Plasma kallikrein (Homo sapiens, UniProt P03952) (assay: In Vitro Enzyme Inhibition: A 10 mM solution of the test compound was made in DMSO. This solution was serially diluted 1:5 in DMSO to yield 2000, 400, 80, 16, 3.2, 0.64, 0.128, 0.0256 and 0.00512 μM compound test solutions. A control tube containing only DMSO is included. 16 μL of each compound test solution was combined with 384 μL of assay buffer (50 mM Tris-HCl pH 7.5, 150 mM NaCl, 0.01% Triton X-100) to yield a “4× test compound buffer stock”.Separately, a 40 nM solution of human Plasma Kallikrein (Abcam) and a 93.6 μM solution Pro-Phe-Arg-AMC (Bachem) were made using assay buffer. These solutions are hereby referred to as 4×hPK and 2×PFR-AMC, respectively.60 μL of each 4× test compound buffer stock was combined with 60 μL of 4×hPK to yield 120 μL of “2× test compound buffer stock/2×hPK”. 50 μL was removed from this mixture and placed into duplicate wells on a Microfluor 1Black U-bottom microtiter plate (Thermo Scientific). This plate was incubated for 5 minutes at 37° C. To each well, 50 μL of pre-warmed 2×PFR-AMC was added to start the enzymatic reaction. Cleavage of PFR-AMC was monitored in a Biotek Synergy H4 reader set at 37° C. Readings are taken every 43 seconds for 1 hour. The highest mean velocity over 20 reads (˜15 minutes) is used to calculate the IC50. The IC50 is calculated using the Gen5 (Biotek Instruments).).
Chain of Plasma kallikrein (P03952 20-390 limits assumed): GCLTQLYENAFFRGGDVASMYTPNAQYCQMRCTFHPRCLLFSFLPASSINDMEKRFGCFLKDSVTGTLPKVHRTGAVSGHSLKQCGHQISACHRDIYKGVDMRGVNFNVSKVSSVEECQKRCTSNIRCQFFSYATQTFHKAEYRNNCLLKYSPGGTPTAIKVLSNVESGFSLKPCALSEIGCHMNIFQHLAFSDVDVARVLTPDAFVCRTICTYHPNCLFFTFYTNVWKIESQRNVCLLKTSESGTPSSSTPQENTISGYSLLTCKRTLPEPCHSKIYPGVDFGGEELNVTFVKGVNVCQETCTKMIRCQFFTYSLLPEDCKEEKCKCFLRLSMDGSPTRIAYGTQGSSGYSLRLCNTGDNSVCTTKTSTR
Chain of Plasma kallikrein (P03952 391-638 limits assumed): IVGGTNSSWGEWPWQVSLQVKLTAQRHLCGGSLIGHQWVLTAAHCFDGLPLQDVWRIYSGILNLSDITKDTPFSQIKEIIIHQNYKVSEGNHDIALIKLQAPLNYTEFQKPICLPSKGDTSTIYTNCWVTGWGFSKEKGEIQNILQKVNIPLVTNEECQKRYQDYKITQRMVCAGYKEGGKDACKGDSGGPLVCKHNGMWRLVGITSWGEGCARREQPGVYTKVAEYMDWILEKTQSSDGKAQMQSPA

Row | Compound | IC50 [nM]
1 | Cc1cc(N)nc(C)c1CNC(=O)c1cc(C(F)(F)F)n(Cc2ccc3ncc(Cl)cc3c2)n1 | 1000 to 10000
2 | Cc1cc(N)nc(C)c1CNC(=O)c1ccn(Cc2ccc3ncc(Cl)cc3c2)n1 | < 100
3 | Cc1cc(N)nc(C)c1CNC(=O)c1cn(Cc2ccc3ncc(Cl)cc3c2)c(CO)n1 | < 100
4 | Cc1cc(N)nc(C)c1CNC(=O)c1nn(Cc2ccc3ncc(Cl)cc3c2)nc1C(F)(F)F | < 100
5 | Cc1cc(N)nc(C)c1CNC(=O)c1cn(Cc2ccc3ncc(Cl)cc3c2)c2cccnc12 | < 100
